The results in this text go back to patent publication US20220402916A1, “SMALL MOLECULE INHIBITORS OF KRAS G12C MUTANT” (Merck Sharp & Dohme Corp., priority 2019, published 2022).

The structures appear in SMILES notation.

For one assay, the system named is NCI-H358 cells. In words: Cellular phospho-ERK assay. In kind it is cell-based. As to conditions: Homo sapiens, NCI-H358, 2 h, NCI-H358 cells; 2 hour incubation; ratio of p-Erk vs total Erk; read-out: IC50. As to the method: NCI-H358 cells (ATCC® CRL-5807™) were cultured in T150 flask in growth medium (RPMI medium 1640-GlutaMAX™-1 (ThermoFisher Scientific 61870) containing 10% fetal bovine serum (ThermoFisher Scientific 10091148)). The cells were harvested in growth medium after TrypLE (ThermoFisher scientific 12604021) digestion and were seeded in 384-well collagen coated cell culture plate (Corning 356702) at a density of 15,000 cells/well, and incubated at 37° C., 5% CO2 overnight. The compound dose-response titrations were prepared and appropriate amounts of compounds were dispensed in 384-well intermediate plate using Echo 550 liquid handler. RPMI medium 1640-GlutaMAX™-I were added to the intermediate plate and transferred to 384-well cell culture plate, which was incubated at 37° C., 5% CO2 for 2 hours. After removal of medium from the plate, cells were lysed in lysis buffer from Alpha SureFire® Ultra™ Multiplex p-Erk and total Erk assay kit (PerkinElmer MPSU-PTERK) containing Halt™ Protease and Phosphotase inhibitor cocktail (ThermoFisher Scientific 78446) at room temperature with constant shaking at 300 rpm for 30 minutes. The cell lysates were then transferred to OptiPlate-384 plate (PerkinElmer 6005620) and the phosphorylation of Erk and total Erk levels were detected by Alpha SureFire Ultra Multiplex p-Erk kit (PerkinElmer MPSU-PTERK) following the manufacturer's protocol. Assay plates were read on an EnVision Multimode Plate Reader (PerkinElmer) and the ratio of p-Erk vs total Erk in each well was used as the final readout. Dose response curves were analyzed using a 4-parameter logistic model to calculate IC50 values using spotfire software.

Assay [1] addresses T1, Biotinylated KRAS G12C protein (Homo sapiens, UniProt P01116, C118S/C51S/C80L/G12C).
T1 construct: 183 amino acids; biotin on K10
In words: SOS-catalyzed nucleotide exchange assay. As to conditions: for IC50: apparent potency, preincubation time of 60 minutes prior to addition of SOS; for inhibition at 10 µM: 10,000 nM, 60 minutes of preincubation prior to addition of SOS. In kind it is biochemical. As to the method: Compounds are added to this complex, and then after 60 minute incubation time the mixture is treated with recombinant SOS protein and unlabeled GTP. Small molecule inhibitors stabilize the Bodipy-GDP complex whereas the untreated protein rapidly exchanges Bodipy-GDP for unlabeled GTP resulting in reduced TR-FRET signal. […] This mixture is then further diluted to 90 nM in an assay buffer (20 mM HEPES, 150 mM sodium chloride, 10 mM magnesium chloride, and 0.005% Tween) containing 15 nM of Terbium-Streptavidin (Invitrogen, catalog #PV3577) and 900 nM of Bodipy-GDP and incubated at room temperature for six hours. […] Each test compound (10 mM stock in DMSO) is diluted in DMSO to make a 10-point, 3-fold dilution series in a 384-well low dead volume microplate (Labcyte, catalog #LP-0200). Once titrations are made, 10 nL of the diluted compounds is acoustically dispensed into a 384-well assay plate (Corning, catalog #3820) using an Echo 550 (Labcyte). […] Each well then receives 3 μL of 240 nM recombinant human SOS protein and 9 mM GTP (Sigma, G8877) in assay buffer and is incubated at room temperature for 60 minutes. The time-resolved fluorescence resonance energy transfer signal for the assay plate is measured on an Envision (PerkinElmer) plate reader: Excitation filter=340 nm; emission1=495 nm; emission2=520 nm; dichroic mirror=D400/D505; delay time=100 μs. The signal of each well is determined as the ratio of the emission at 520 nm to that at 495 nm. […] The apparent effect as a function of compound concentration is fit to a four parameter logistic equation.

T1 sequence (P01116 with tags, fused parts or gaps isoform P01116-2 G12C/C51S/C80L/C118S): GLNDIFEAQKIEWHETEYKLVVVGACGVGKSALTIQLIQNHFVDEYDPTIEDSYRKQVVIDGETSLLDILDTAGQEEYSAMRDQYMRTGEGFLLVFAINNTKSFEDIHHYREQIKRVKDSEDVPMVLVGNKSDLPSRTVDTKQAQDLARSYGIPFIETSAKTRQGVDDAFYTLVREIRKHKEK

The IC50 is the point on the concentration scale where inhibition reaches its midpoint. For `C=CC(=O)N1CCN(c2cc(C(=O)NCCC3(N)CCCCC3)nc3c2CCN(c2cccc4cccc(C)c24)C3)C[C@@H]1CC#N` [Compound 92, (S)-4-(4-acryloyl-3-(cyanomethyl)piperazin-1-yl)-N-(2-(1-aminocyclohexyl)ethyl)-7-(8-methylnaphthalen-1-yl)-5,6,7,8-tetrahydro-1,7-naphthyridine-2-carboxamide], the IC50 is 7200 nM in the assay on NCI-H358 cells and 20 nM in assay [1].
Take `C=CC(=O)N1CCN(c2cc(C(=O)N[C@@H](C)CN)nc3c2CCN(c2cccc4ccccc24)C3)C[C@@H]1CC#N` [Compound 62, 4-((S)-4-acryloyl-3-(cyanomethyl)piperazin-1-yl)-N-((S)-1-aminopropan-2-yl)-7-(naphthalen-1-yl)-5,6,7,8-tetrahydro-1,7-naphthyridine-2-carboxamide]: the values for the 50% inhibitory concentration (IC50) (in the assay on NCI-H358 cells; in assay [1]) were 2410 nM and 51 nM, respectively.
For the compound `C=CC(=O)N1CCN(c2cc(C(=O)N[C@H]3CNCC[C@H]3F)nc3c2CCN(c2cccc4cccc(C)c24)C3)C[C@@H]1CC#N` [Compound 103, 4-((S)-4-acryloyl-3-(cyanomethyl)piperazin-1-yl)-N-((3S,4R)-4-fluoropiperidin-3-yl)-7-(8-methylnaphthalen-1-yl)-5,6,7,8-tetrahydro-1,7-naphthyridine-2-carboxamide], the IC50 came out at 14900 nM in the assay on NCI-H358 cells and 26 nM in assay [1].
For `C=CC(=O)N1CCN(c2cc(C(=O)NC[C@]3(F)CCCNC3)nc3c2CCN(c2cccc4cccc(C)c24)C3)C[C@@H]1CC#N` [Compound 107, 4-((S)-4-acryloyl-3-(cyanomethyl)piperazin-1-yl)-N-(((S)-3-fluoropiperidin-3-yl)methyl)-7-(8-methylnaphthalen-1-yl)-5,6,7,8-tetrahydro-1,7-naphthyridine-2-carboxamide], the IC50 was 7350 nM with NCI-H358 cells and 54 nM in assay [1].
In the case of `C=CC(=O)N1CCN(c2cc(C(=O)NCC3CCCN3C)nc3c2CCN(c2cccc4cccc(C)c24)C3)C[C@@H]1CC#N` (mixture of isomers) [Compound 82, 4-((S)-4-acryloyl-3-(cyanomethyl)piperazin-1-yl)-7-(8-methylnaphthalen-1-yl)-N-(((R)-1-methylpyrrolidin-2-yl)methyl)-5,6,7,8-tetrahydro-1,7-naphthyridine-2-carboxamide, as a mixture with 4-((S)-4-acryloyl-3-(cyanomethyl)piperazin-1-yl)-7-(8-methylnaphthalen-1-yl)-N-(((S)-1-methylpyrrolidin-2-yl)methyl)-5,6,7,8-tetrahydro-1,7-naphthyridine-2-carboxamide], the IC50 in the assay with NCI-H358 cells is 324 nM.
With `C=CC(=O)N1CCN(c2cc(C(=O)N[C@H]3CCN(C)C3)nc3c2CCN(c2cccc4cccc(C)c24)C3)CC1` [Compound 49, (S)-4-(4-acryloylpiperazin-1-yl)-7-(8-methylnaphthalen-1-yl)-N-(1-methylpyrrolidin-3-yl)-5,6,7,8-tetrahydro-1,7-naphthyridine-2-carboxamide], the IC50 in assay [1] was determined as 2180 nM.
With `C=CC(=O)N1CCN(c2cc(C(=O)N3CCCCC3CN(C)C)nc3c2CCN(c2cccc4cccc(C)c24)C3)CC1` (racemic) [Compound 47, rac-1-(4-(2-(2-((dimethylamino)methyl)piperidine-1-carbonyl)-7-(8-methylnaphthalen-1-yl)-5,6,7,8-tetrahydro-1,7-naphthyridin-4-yl)piperazin-1-yl)prop-2-en-1-one], the 50% inhibitory concentration (IC50) in assay [1] amounted to 7750 nM.
The same measure, in the same setting: for `C=CC(=O)N1CCN(c2cc(C(=O)N[C@H]3COC[C@@H]3N)nc3c2CCN(c2cccc4cccc(C)c24)C3)CC1` (racemic) [Compound 36, rac-4-(4-acryloylpiperazin-1-yl)-N-(trans-4-aminotetrahydrofuran-3-yl)-7-(8-methylnaphthalen-1-yl)-5,6,7,8-tetrahydro-1,7-naphthyridine-2-carboxamide] the value was 1520 nM; for `C=CC(=O)N1CCN(c2cc(C(=O)NC3(CN(CC)CC)CC3)nc3c2CCN(c2cccc4cccc(C)c24)C3)CC1` [Compound 26, 4-(4-acryloylpiperazin-1-yl)-N-(1-((diethylamino)methyl)cyclopropyl)-7-(8-methylnaphthalen-1-yl)-5,6,7,8-tetrahydro-1,7-naphthyridine-2-carboxamide], 187 nM.
As to `C=CC(=O)N1CCN(c2cc(C(=O)NC(C)CN(C)C)nc3c2CCN(c2cccc4ccccc24)C3)CC1` (racemic) [Compound 6, rac-4-(4-acryloylpiperazin-1-yl)-N-(1-(dimethylamino)propan-2-yl)-7-(naphthalen-1-yl)-5,6,7,8-tetrahydro-1,7-naphthyridine-2-carboxamide], the IC50 in assay [1] is 1690 nM.
As for `C=CC(=O)N1CCN(c2cc(C(=O)NC(CO)CN(C)C)nc3c2CCN(c2cccc4cccc(C)c24)C3)CC1` (racemic) [Compound 16, rac-4-(4-acryloylpiperazin-1-yl)-N-(1-(dimethylamino)-3-hydroxypropan-2-yl)-7-(8-methylnaphthalen-1-yl)-5,6,7,8-tetrahydro-1,7-naphthyridine-2-carboxamide], in assay [1], the 50% inhibitory concentration (IC50) worked out at 962 nM.
On the same count and under the same terms, in the case of `C=CC(=O)N1CCN(c2cc(C(=O)NCCN3CCCC3)nc3c2CCN(c2cccc4ccccc24)C3)CC1` [Compound 1, 4-(4-acryloylpiperazin-1-yl)-7-(naphthalen-1-yl)-N-(2-(pyrrolidin-1-yl)ethyl)-5,6,7,8-tetrahydro-1,7-naphthyridine-2-carboxamide] it was 3920 nM.
In general, inhibition refers to the change of the read-out against control, counted positive when it falls. A higher inhibition goes with strong suppression. In assay [1], `C=CC(=O)N1CCN(c2cc(C(=O)N3CCC[C@@H]3CN3CCC(=O)N3)nc3c2CCN(c2cccc4cccc(C)c24)C3)CC1` [Compound 43, (R)-1-((1-(4-(4-acryloylpiperazin-1-yl)-7-(8-methylnaphthalen-1-yl)-5,6,7,8-tetrahydro-1,7-naphthyridine-2-carbonyl)pyrrolidin-2-yl)methyl)pyrazolidin-3-one] returned an inhibition at 10 µM of 33%.
Turning to `C=CC(=O)N1CCN(c2cc(C(=O)NCCN(C)C)nc3c2CCN(c2cccc4cccc(C)c24)C3)CC1` [Compound 13, 4-(4-acryloylpiperazin-1-yl)-N-(2-(dimethylamino)ethyl)-7-(8-methylnaphthalen-1-yl)-5,6,7,8-tetrahydro-1,7-naphthyridine-2-carboxamide], the IC50 in assay [1] was determined as 826 nM.
In assay [1], `C=CC(=O)N1CCN(c2cc(C(=O)NCC(C)(C)CN(C)C)nc3c2CCN(c2cccc4cccc(C)c24)C3)CC1` [Compound 22, 4-(4-acryloylpiperazin-1-yl)-N-(3-(dimethylamino)-2,2-dimethylpropyl)-7-(8-methylnaphthalen-1-yl)-5,6,7,8-tetrahydro-1,7-naphthyridine-2-carboxamide] yielded an inhibition at 10 µM of 37%.
Take `C=CC(=O)N1CCN(c2cc(C(=O)N[C@H]3CCCC[C@@H]3N)nc3c2CCN(c2cccc4cccc(C)c24)C3)CC1` [Compound 30, 4-(4-acryloylpiperazin-1-yl)-N-((1S,2S)-2-aminocyclohexyl)-7-(8-methylnaphthalen-1-yl)-5,6,7,8-tetrahydro-1,7-naphthyridine-2-carboxamide]: the IC50 in assay [1] stood at 4900 nM.
As for `C=CC(=O)N1CCN(c2cc(C(=O)N[C@H]3COC[C@H]3N)nc3c2CCN(c2cccc4cccc(C)c24)C3)CC1` (racemic) [Compound 28, rac-4-(4-acryloylpiperazin-1-yl)-N-(cis-4-aminotetrahydrofuran-3-yl)-7-(8-methylnaphthalen-1-yl)-5,6,7,8-tetrahydro-1,7-naphthyridine-2-carboxamide], the IC50 in assay [1] amounted to 7320 nM.
